Data set [1] concerns KATO III. Description: MTS assay, KATO III cells. It is filed as cell-based. Particulars: Homo sapiens, 72 hours, read-out: KATO III, MTS cell kill % inhibition. The method, boiled down: (§1)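 First, seed 3000 cells per well in low-serum (1% FBS) DMEM and culture 18 h. Next, add compounds prepared at 300× in DMSO and diluted 1:40 in DMEM; incubate 72 h. Finally, add MTS/PMS for 4 h and measure absorbance at 492 nm.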
On the technique in general: Tetrazolium dyes change colour on reduction, which living cells bring about.

The target in data set [2] is IGF-1R (Homo sapiens, UniProt P08069). The experiment in a line: IGFR1 activity assay (ELISA). It is filed as biochemical. As to conditions: read-out: IGF-1R, PCT INH (30 μM), ELISA. The method, boiled down:
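IGF1R (0.33 ng/μL final) phosphorylating Pyk-2 (0.05 ng/μL final) in buffer with 12.5 μM ATP, 10 mM MgCl2, 1 h room temperature. Product captured on streptavidin plates, detected with anti-phosphotyrosine and alkaline phosphatase secondary antibody, Attophos fluorescent readout.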

The test system of data set [3] is MDA-MB-231. The experiment in a line: MTS assay, MDA-MB-231 cells. The class given is cell-based. As to conditions: Homo sapiens, 72 hours, read-out: MDA-MB-231, MTS cell kill % inhibition. The gist of the method:
as §1

In data set [4] the test system is NCI-H1299. The experiment in a line: MTS assay, NCI-H1299 cells. The class given is cell-based. As to conditions: Homo sapiens, 72 hours, read-out: NCI-H1299, MTS cell kill % inhibition. The method, boiled down:
as §1

Data set [5] has as its system DLD-1. Description: MTS assay, DLD-1 cells. It is filed as cell-based. Particulars: Homo sapiens, 72 hours, read-out: DLD-1, MTS cell kill % inhibition. The method, boiled down: as §1

As usually defined, the melting point is the temperature, or range, at which the solid turns liquid.

SMILES strings stand for the structures.

IGF-1R, sequence (P08069 31-1367): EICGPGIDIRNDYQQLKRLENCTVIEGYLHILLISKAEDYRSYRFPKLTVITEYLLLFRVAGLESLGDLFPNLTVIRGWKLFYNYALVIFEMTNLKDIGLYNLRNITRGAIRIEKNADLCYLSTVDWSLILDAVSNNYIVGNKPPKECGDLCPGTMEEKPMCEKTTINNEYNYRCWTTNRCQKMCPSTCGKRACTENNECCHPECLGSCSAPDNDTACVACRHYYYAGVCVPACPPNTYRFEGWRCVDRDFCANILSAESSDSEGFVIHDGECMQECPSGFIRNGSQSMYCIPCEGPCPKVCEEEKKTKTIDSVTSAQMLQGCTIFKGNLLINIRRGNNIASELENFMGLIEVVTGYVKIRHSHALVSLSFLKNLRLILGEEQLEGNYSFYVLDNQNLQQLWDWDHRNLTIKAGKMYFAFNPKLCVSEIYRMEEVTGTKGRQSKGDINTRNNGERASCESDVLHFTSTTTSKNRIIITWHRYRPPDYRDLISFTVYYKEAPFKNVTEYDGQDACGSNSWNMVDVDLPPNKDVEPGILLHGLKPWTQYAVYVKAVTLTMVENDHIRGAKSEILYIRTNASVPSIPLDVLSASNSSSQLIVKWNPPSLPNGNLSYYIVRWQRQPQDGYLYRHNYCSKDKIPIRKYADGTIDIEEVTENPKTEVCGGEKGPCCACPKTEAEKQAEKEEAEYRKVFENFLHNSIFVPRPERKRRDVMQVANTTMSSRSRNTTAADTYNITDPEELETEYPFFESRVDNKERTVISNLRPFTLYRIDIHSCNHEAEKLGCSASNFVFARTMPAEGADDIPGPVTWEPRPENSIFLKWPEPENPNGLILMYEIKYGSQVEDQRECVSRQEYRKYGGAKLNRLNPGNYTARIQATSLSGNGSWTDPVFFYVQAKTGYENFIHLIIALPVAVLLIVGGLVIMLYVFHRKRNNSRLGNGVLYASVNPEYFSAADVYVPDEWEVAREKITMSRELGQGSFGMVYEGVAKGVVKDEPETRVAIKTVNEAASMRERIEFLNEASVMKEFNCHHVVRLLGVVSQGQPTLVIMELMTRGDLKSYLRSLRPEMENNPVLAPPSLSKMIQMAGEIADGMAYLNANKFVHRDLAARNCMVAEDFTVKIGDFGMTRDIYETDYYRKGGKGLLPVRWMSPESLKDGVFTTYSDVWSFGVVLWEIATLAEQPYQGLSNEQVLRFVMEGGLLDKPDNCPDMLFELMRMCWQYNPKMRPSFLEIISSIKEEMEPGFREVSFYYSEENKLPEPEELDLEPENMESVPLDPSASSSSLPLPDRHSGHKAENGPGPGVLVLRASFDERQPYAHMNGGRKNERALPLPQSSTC

`CN1CCCC1CCNC(=O)c1ccc2[nH]c(-c3ccc[nH]c3=O)c(-c3ccccc3)c2c1` (stereo not drawn) [Compound 5, N-[2-(1-methylpyrrolidin-2-yl)ethyl]-2-(2-oxo-1,2-dihydropyridin-3-yl)-3-phenyl-1H-indole-5-carboxamide]: the melting point lay in the range of 185 to 188 °C. Also, the inhibition at 10 µM in data set [1] lay in the range of 80 to 100%. For the same molecule, in data set [2], the inhibition at 30 µM is less than 50%. For the same molecule, in data set [3], the inhibition at 10 µM fell in the range of 50 to 79%. The inhibition at 10 µM in data set [4] lay in the range of 80 to 100%. Further, in data set [5], the inhibition at 10 µM lay in the range of 50 to 79%.

Take `O=C(NCCCN1CCOCC1)c1ccc2[nH]c(-c3ccc[nH]c3=O)c(-c3cc4cccc5c4n3CCC5)c2c1` [Compound 8, 3-(5,6-dihydro-4H-pyrrolo[3,2,1-ij]quinolin-2-yl)-N-(3-morpholin-4-ylpropyl)-2-(2-oxo-1,2-dihydropyridin-3-yl)-1H-indole-5-carboxamide]: the melting point was in the range of 181 to 189 °C. The inhibition at 10 µM in data set [1] was 80 to 100%. Further, the inhibition at 30 µM in data set [2] lay in the range of 50 to 79%. The inhibition at 10 µM in data set [3] was 80 to 100%. In addition, the inhibition at 10 µM in data set [4] is 80 to 100%. Also, in data set [5], the inhibition at 10 µM fell in the range of 80 to 100%.

With `COC(=O)c1ccc2[nH]c(-c3ccc[nH]c3=O)c(-c3ccc(-c4ccccc4)cc3)c2c1` [Compound 9, methyl 3-biphenyl-4-yl-2-(2-oxo-1,2-dihydropyridin-3-yl)-1H-indole-5-carboxylate], the melting point was greater than 300 °C. Besides, the inhibition at 10 µM in data set [1] was less than 50%. Besides, the inhibition at 30 µM in data set [2] is less than 50%. In addition, in data set [3], the inhibition at 10 µM was less than 50%. In addition, the inhibition at 10 µM in data set [4] is less than 50%. The inhibition at 10 µM in data set [5] is less than 50%.

`O=C(Nc1ccccc1Cl)c1ccc2[nH]c(-c3ccc[nH]c3=O)c(-c3ccccc3)c2c1` [Compound 12, N-(2-chlorophenyl)-2-(2-oxo-1,2-dihydropyridin-3-yl)-3-phenyl-1H-indole-5-carboxamide] registered a melting point greater than 300 °C. Besides, in data set [1], the inhibition at 10 µM was in the range of 80 to 100%. Moreover, the inhibition at 30 µM in data set [2] is less than 50%. Further, the inhibition at 10 µM in data set [3] was 50 to 79%. For the same molecule, the inhibition at 10 µM in data set [4] lay in the range of 80 to 100%. Besides, in data set [5], the inhibition at 10 µM was in the range of 80 to 100%.

In turn, `O=C(Nc1cccc(F)c1)c1ccc2[nH]c(-c3ccc[nH]c3=O)c(-c3ccccc3)c2c1` [Compound 13, N-(3-fluorophenyl)-2-(2-oxo-1,2-dihydropyridin-3-yl)-3-phenyl-1H-indole-5-carboxamide] registered a melting point of 176 to 182 °C. Besides, the inhibition at 10 µM in data set [1] fell in the range of 80 to 100%. Moreover, in data set [2], the inhibition at 30 µM is 50 to 79%. In data set [3], the inhibition at 10 µM is 50 to 79%. For the same molecule, the inhibition at 10 µM in data set [4] lay within 80 to 100%. In data set [5], the inhibition at 10 µM fell in the range of 80 to 100%.

Regarding `O=C(Nc1ccccc1F)c1ccc2[nH]c(-c3ccc[nH]c3=O)c(-c3ccccc3)c2c1` [Compound 15, N-(2-fluorophenyl)-2-(2-oxo-1,2-dihydropyridin-3-yl)-3-phenyl-1H-indole-5-carboxamide], the melting point is greater than 300 °C. In data set [1], the inhibition at 10 µM was in the range of 80 to 100%. Besides, in data set [2], the inhibition at 30 µM was 80 to 100%. Moreover, in data set [3], the inhibition at 10 µM lay in the range of 50 to 79%. Moreover, the inhibition at 10 µM in data set [4] was in the range of 50 to 79%. Besides, the inhibition at 10 µM in data set [5] lay within 80 to 100%.

In turn, `Cc1ccccc1N(C)C(=O)c1ccc2[nH]c(-c3ccc[nH]c3=O)c(-c3ccccc3)c2c1` [Compound 16, N-methyl-N-(2-methylphenyl)-2-(2-oxo-1,2-dihydropyridin-3-yl)-3-phenyl-1H-indole-5-carboxamide] registered a melting point of 216 to 220 °C. The inhibition at 10 µM in data set [1] was 80 to 100%. Also, the inhibition at 30 µM in data set [2] lay within 80 to 100%. In addition, in data set [3], the inhibition at 10 µM is less than 50%. Moreover, the inhibition at 10 µM in data set [4] is 50 to 79%. For the same molecule, in data set [5], the inhibition at 10 µM was in the range of 50 to 79%.

`O=C(c1ccc2[nH]c(-c3ccc[nH]c3=O)c(-c3ccccc3)c2c1)N1CCCCC1` [Compound 17, 3-[3-phenyl-5-(piperidin-1-ylcarbonyl)-1H-indol-2-yl]pyridin-2(1H)-one] registered a melting point of 182 to 186 °C. In data set [1], the inhibition at 10 µM was in the range of 80 to 100%. Besides, in data set [2], the inhibition at 30 µM was in the range of 80 to 100%. Moreover, in data set [3], the inhibition at 10 µM was less than 50%. In addition, in data set [4], the inhibition at 10 µM is 80 to 100%. Moreover, the inhibition at 10 µM in data set [5] fell in the range of 50 to 79%.

`O=C(Nc1cccc(Cl)c1)c1ccc2[nH]c(-c3ccc[nH]c3=O)c(-c3ccccc3)c2c1` [Compound 22, N-(3-chlorophenyl)-2-(2-oxo-1,2-dihydropyridin-3-yl)-3-phenyl-1H-indole-5-carboxamide] registered a melting point of 244 to 250 °C. Moreover, the inhibition at 10 µM in data set [1] was 80 to 100%. For the same molecule, the inhibition at 30 µM in data set [2] was in the range of 50 to 79%. In data set [3], the inhibition at 10 µM lay in the range of 50 to 79%. Moreover, the inhibition at 10 µM in data set [4] lay within 50 to 79%. Also, in data set [5], the inhibition at 10 µM was 80 to 100%.

`CN(C)CCCN(C)C(=O)c1ccc2[nH]c(-c3ccc[nH]c3=O)c(-c3ccccc3)c2c1` [Compound 27, N-[3-(dimethylamino)propyl]-N-methyl-2-(2-oxo-1,2-dihydropyridin-3-yl)-3-phenyl-1H-indole-5-carboxamide]: the melting point was 125 to 128 °C. For the same molecule, the inhibition at 10 µM in data set [1] lay in the range of 80 to 100%. Moreover, in data set [2], the inhibition at 30 µM is 80 to 100%. In addition, the inhibition at 10 µM in data set [3] was in the range of 50 to 79%. For the same molecule, in data set [4], the inhibition at 10 µM is 50 to 79%. Further, in data set [5], the inhibition at 10 µM fell in the range of 50 to 79%.

For the molecule `COc1ccc(NC(=O)c2ccc3[nH]c(-c4ccc[nH]c4=O)c(-c4ccccc4)c3c2)cc1` [Compound 29, N-(4-methoxyphenyl)-2-(2-oxo-1,2-dihydropyridin-3-yl)-3-phenyl-1H-indole-5-carboxamide], the melting point is 279 to 283 °C. Moreover, the inhibition at 10 µM in data set [1] lay in the range of 80 to 100%. Further, in data set [2], the inhibition at 30 µM is 80 to 100%. The inhibition at 10 µM in data set [3] is less than 50%. Also, the inhibition at 10 µM in data set [4] lay within 80 to 100%. Further, the inhibition at 10 µM in data set [5] is 50 to 79%.

In turn, `CN(C)CCCNC(=O)c1ccc2[nH]c(-c3ccc[nH]c3=O)c(-c3ccccc3)c2c1` [Compound 30, N-[3-(dimethylamino)propyl]-2-(2-oxo-1,2-dihydropyridin-3-yl)-3-phenyl-1H-indole-5-carboxamide] came in with a melting point of 143 to 145 °C. In data set [1], the inhibition at 10 µM is 80 to 100%. The inhibition at 30 µM in data set [2] fell in the range of 80 to 100%. Further, the inhibition at 10 µM in data set [3] fell in the range of 80 to 100%. Moreover, in data set [4], the inhibition at 10 µM lay in the range of 80 to 100%. Moreover, in data set [5], the inhibition at 10 µM fell in the range of 80 to 100%.

Molecule `CN(Cc1cccnc1)C(=O)c1ccc2[nH]c(-c3ccc[nH]c3=O)c(-c3ccc(-c4ccccc4)cc3)c2c1` [Compound 33, 3-biphenyl-4-yl-N-methyl-2-(2-oxo-1,2-dihydropyridin-3-yl)-N-(pyridin-3-ylmethyl)-1H-indole-5-carboxamide] yielded a melting point of 92 to 97 °C. In addition, the inhibition at 10 µM in data set [1] lay within 80 to 100%. Moreover, in data set [2], the inhibition at 30 µM is less than 50%. Further, the inhibition at 10 µM in data set [3] lay in the range of 80 to 100%. In data set [4], the inhibition at 10 µM lay in the range of 80 to 100%. The inhibition at 10 µM in data set [5] was in the range of 80 to 100%.

In the case of `O=C(c1ccc2[nH]c(-c3ccc[nH]c3=O)c(-c3ccc(-c4ccccc4)cc3)c2c1)N1CCN(c2ccccc2F)CC1` [Compound 36, 3-(3-biphenyl-4-yl-5-{[4-(2-fluorophenyl)piperazin-1-yl]carbonyl) -1H-indol-2-yl)pyridin-2(1H)-one], the melting point is 137 to 144 °C. For the same molecule, the inhibition at 10 µM in data set [1] was less than 50%. The inhibition at 30 µM in data set [2] is less than 50%. Further, in data set [3], the inhibition at 10 µM is 50 to 79%. In data set [4], the inhibition at 10 µM was less than 50%. Further, the inhibition at 10 µM in data set [5] is less than 50%.

`O=C(c1ccc2[nH]c(-c3ccc[nH]c3=O)c(-c3ccc(-c4ccccc4)cc3)c2c1)N1CCCCC1` [Compound 38, 3-[3-biphenyl-4-yl-5-(piperidin-1-ylcarbonyl)-1H-indol-2-yl]pyridin-2(1H)-one] displayed a melting point of 170 to 182 °C. The inhibition at 10 µM in data set [1] fell in the range of 80 to 100%. In addition, the inhibition at 30 µM in data set [2] was less than 50%. Further, the inhibition at 10 µM in data set [3] is 80 to 100%. The inhibition at 10 µM in data set [4] lay within 80 to 100%. Moreover, the inhibition at 10 µM in data set [5] lay within 80 to 100%.

For `O=C(NCc1ccccn1)c1ccc2[nH]c(-c3ccc[nH]c3=O)c(-c3ccc(-c4ccccc4)cc3)c2c1` [Compound 42, 3-biphenyl-4-yl-2-(2-oxo-1,2-dihydropyridin-3-yl)-N-(pyridin-2-ylmethyl)-1H-indole-5-carboxamide], the melting point is 123 to 127 °C. For the same molecule, the inhibition at 10 µM in data set [1] was in the range of 80 to 100%. Moreover, the inhibition at 30 µM in data set [2] was less than 50%. Further, the inhibition at 10 µM in data set [3] is 80 to 100%. The inhibition at 10 µM in data set [4] lay within 80 to 100%. In addition, in data set [5], the inhibition at 10 µM lay in the range of 80 to 100%.

Consider `CN(CCc1ccccc1)C(=O)c1ccc2[nH]c(-c3ccc[nH]c3=O)c(-c3ccc(-c4ccccc4)cc3)c2c1` [Compound 43, 3-biphenyl-4-yl-N-methyl-2-(2-oxo-1,2-dihydropyridin-3-yl)-N-(2-phenylethyl)-1H-indole-5-carboxamide], for which the melting point was 136 to 141 °C. In data set [1], the inhibition at 10 µM lay within 50 to 79%. The inhibition at 30 µM in data set [2] was less than 50%. Further, the inhibition at 10 µM in data set [3] was less than 50%. Moreover, in data set [4], the inhibition at 10 µM fell in the range of 50 to 79%. Besides, the inhibition at 10 µM in data set [5] is 50 to 79%.
